Data reported in PMC9578392, “Safety, Tolerability, and Pharmacokinetics of the Novel Antiviral Agent Ensitrelvir Fumaric Acid, a SARS-CoV-2 3CL Protease Inhibitor, in Healthy Adults” (Antimicrobial Agents and Chemotherapy, 2022).

Assay: Treatment-emergent adverse events, single dose (part 1)
Assay type: in vivo, human
Experimental: In part 1, Japanese participants were randomized to receive placebo or single dose of ensitrelvir (20, 70, 250, 500, 1,000, and 2,000 mg given to cohorts A, B, C, D, E, and J, respectively), suspended in 0.5% methylcellulose, in the fasted state. Additionally, in cohort C, the effect of food on the pharmacokinetics of ensitrelvir was investigated in a 2-group, 2-period crossover design by administering placebo or ensitrelvir (250 mg) in the fasted or fed (high-fat/high-calorie) state. In part 2, Japanese participants were randomized to receive placebo or multiple doses of ensitrelvir, suspended in 0.5% methylcellulose. The multiple-dose regimens were as follows: once-daily doses of ensitrelvir 375 mg on day 1 and 125 mg on days 2 to 5 (cohort F), or 750 mg on day 1 and 250 mg on days 2 to 6 (cohort G) in the fasted state. White participants were randomized to receive placebo or multiple doses of ensitrelvir. The multiple-dose regimens were as follows: once-daily doses of ensitrelvir 375 mg on day 1 and 125 mg on days 2 to 5 (cohort H). Each cohort included 11 participants. In cohort G, the effect of ensitrelvir on the pharmacokinetics of midazolam (syrup) was evaluated in an open label self-controlled crossover design. Midazolam 2 mg alone was administered 2 days prior to initiating ensitrelvir administration (on day −2) and midazolam was coadministered on day 6 with placebo or ensitrelvir in the fasted state to participants following once-daily doses for 5 days of placebo (days 1 to 5) or ensitrelvir (750 mg on day 1 and 250 mg on days 2–5).
The nature, frequency, and severity of TEAEs were evaluated and recorded.

[1] = Cohort A 20 mg single dose, n = 6
[2] = Cohort B 70 mg single dose, n = 6
[3] = Cohort C (fasted) 250 mg single dose, n = 8
[4] = Cohort D 500 mg single dose, n = 6
[5] = Cohort E 1,000 mg single dose, n = 6
[6] = Cohort J 2,000 mg single dose, n = 6

Cn1cnc(Cn2c(=O)[nH]/c(=N\c3cc4cn(C)nc4cc3Cl)n(Cc3cc(F)c(F)cc3F)c2=O)n1 [Ensitrelvir, ensitrelvir fumaric acid]
1 (16.7): Abdominal pain, n (%) [2] | Gastrointestinal disorders, n (%) [2] | Headache, n (%) [2] | Nervous system disorders, n (%) [2] | Chills, n (%) [6] | Feces soft, n (%) [6] | Gastrointestinal disorders, n (%) [6] | General disorders and administration site conditions, n (%) [6] | Headache, n (%) [6] | Nausea, n (%) [6] | Nervous system disorders, n (%) [6] | Vomiting, n (%) [6]
1: Abdominal pain, Events [2] | Gastrointestinal disorders, Events [2] | Headache, Events [2] | Nervous system disorders, Events [2] | Chills, Events [6] | Feces soft, Events [6] | General disorders and administration site conditions, Events [6] | Headache, Events [6] | Nausea, Events [6] | Nervous system disorders, Events [6] | Vomiting, Events [6]
well tolerated across all doses tested: overall tolerability (single and multiple doses, all doses tested, healthy participants)
11: Participants with any TEAE, Events [6]
6/6: High density lipoprotein cholesterol decreased, n (%) (Cohort E 1,000 mg single dose, n = 6, listed as ensitrelvir) | High density lipoprotein cholesterol decreased, n (%) (Cohort J 2,000 mg single dose, n = 6, listed as ensitrelvir)
2 (33.3): Participants with any TEAE, n (%) [2]
6 (100): High density lipoprotein cholesterol decreased, n (%) [5] | Investigations, n (%) [5] | Participants with any TEAE, n (%) [5] | High density lipoprotein cholesterol decreased, n (%) [6] | Investigations, n (%) [6] | Participants with any TEAE, n (%) [6]
6: High density lipoprotein cholesterol decreased, Events [5] | Investigations, Events [5] | Participants with any TEAE, Events [5] | High density lipoprotein cholesterol decreased, Events [6] | Investigations, Events [6]
0: Abdominal pain, Events [1] | Abdominal pain, n (%) [1] | Chills, Events [1] | Chills, n (%) [1] | Feces soft, Events [1] | Feces soft, n (%) [1] | Gastrointestinal disorders, Events [1] | Gastrointestinal disorders, n (%) [1] | General disorders and administration site conditions, Events [1] | General disorders and administration site conditions, n (%) [1] | Headache, Events [1] | Headache, n (%) [1] | High density lipoprotein cholesterol decreased, Events [1] | High density lipoprotein cholesterol decreased, n (%) [1] | Investigations, Events [1] | Investigations, n (%) [1] | Nausea, Events [1] | Nausea, n (%) [1] | Nervous system disorders, Events [1] | Nervous system disorders, n (%) [1] | Participants with any TEAE, Events [1] | Participants with any TEAE, n (%) [1] | Vomiting, Events [1] | Vomiting, n (%) [1] | Chills, Events [2] | Chills, n (%) [2] | Feces soft, Events [2] | Feces soft, n (%) [2] | General disorders and administration site conditions, Events [2] | General disorders and administration site conditions, n (%) [2] | High density lipoprotein cholesterol decreased, Events [2] | High density lipoprotein cholesterol decreased, n (%) [2] | Investigations, Events [2] | Investigations, n (%) [2] | Nausea, Events [2] | Nausea, n (%) [2] | Vomiting, Events [2] | Vomiting, n (%) [2] | Abdominal pain, Events [3] | Abdominal pain, n (%) [3] | Chills, Events [3] | Chills, n (%) [3] | Feces soft, Events [3] | Feces soft, n (%) [3] | Gastrointestinal disorders, Events [3] | Gastrointestinal disorders, n (%) [3] | General disorders and administration site conditions, Events [3] | General disorders and administration site conditions, n (%) [3] | Headache, Events [3] | Headache, n (%) [3] | High density lipoprotein cholesterol decreased, Events [3] | High density lipoprotein cholesterol decreased, n (%) [3] | Investigations, Events [3] | Investigations, n (%) [3] | Nausea, Events [3] | Nausea, n (%) [3] | Nervous system disorders, Events [3] | Nervous system disorders, n (%) [3] | Participants with any TEAE, Events [3] | Participants with any TEAE, n (%) [3] | Vomiting, Events [3] | Vomiting, n (%) [3] | Abdominal pain, Events [4] | Abdominal pain, n (%) [4] | Chills, Events [4] | Chills, n (%) [4] | Feces soft, Events [4] | Feces soft, n (%) [4] | Gastrointestinal disorders, Events [4] | Gastrointestinal disorders, n (%) [4] | General disorders and administration site conditions, Events [4] | General disorders and administration site conditions, n (%) [4] | Headache, Events [4] | Headache, n (%) [4] | High density lipoprotein cholesterol decreased, Events [4] | High density lipoprotein cholesterol decreased, n (%) [4] | Investigations, Events [4] | Investigations, n (%) [4] | Nausea, Events [4] | Nausea, n (%) [4] | Nervous system disorders, Events [4] | Nervous system disorders, n (%) [4] | Participants with any TEAE, Events [4] | Participants with any TEAE, n (%) [4] | Vomiting, Events [4] | Vomiting, n (%) [4] | Abdominal pain, Events [5] | Abdominal pain, n (%) [5] | Chills, Events [5] | Chills, n (%) [5] | Feces soft, Events [5] | Feces soft, n (%) [5] | Gastrointestinal disorders, Events [5] | Gastrointestinal disorders, n (%) [5] | General disorders and administration site conditions, Events [5] | General disorders and administration site conditions, n (%) [5] | Headache, Events [5] | Headache, n (%) [5] | Nausea, Events [5] | Nausea, n (%) [5] | Nervous system disorders, Events [5] | Nervous system disorders, n (%) [5] | Vomiting, Events [5] | Vomiting, n (%) [5] | Abdominal pain, Events [6] | Abdominal pain, n (%) [6]
3: Gastrointestinal disorders, Events [6]
2: Participants with any TEAE, Events [2]
a All adverse events were mild.: severity of adverse events (single dose 20–2,000 mg, cohorts A–E and J)
